In ChEMBL document CHEMBL5365511, “Novel Compounds as TEAD Inhibitors for Treating Cancer” (ACS Med Chem Lett, 2023):

Assays:
[1] = molecular target: Transcriptional enhancer factor TEF-4 (Homo sapiens, UniProt Q15562); assay: Displacement of biotinylated lipid pocket probes from His-tagged TEAD2 (unknown origin) preincubated for 4 hrs followed by lipid pocket probe addition and measured after 60 mins by TR-FRET assay
[2] = molecular target: Transcriptional enhancer factor TEF-3 (Homo sapiens, UniProt Q15561); assay: Displacement of biotinylated lipid pocket probes from His-tagged TEAD4 (unknown origin) preincubated for 4 hrs followed by lipid pocket probe addition and measured after 60 mins by TR-FRET assay
Transcriptional enhancer factor TEF-3, sequence (Q15561 whole entry): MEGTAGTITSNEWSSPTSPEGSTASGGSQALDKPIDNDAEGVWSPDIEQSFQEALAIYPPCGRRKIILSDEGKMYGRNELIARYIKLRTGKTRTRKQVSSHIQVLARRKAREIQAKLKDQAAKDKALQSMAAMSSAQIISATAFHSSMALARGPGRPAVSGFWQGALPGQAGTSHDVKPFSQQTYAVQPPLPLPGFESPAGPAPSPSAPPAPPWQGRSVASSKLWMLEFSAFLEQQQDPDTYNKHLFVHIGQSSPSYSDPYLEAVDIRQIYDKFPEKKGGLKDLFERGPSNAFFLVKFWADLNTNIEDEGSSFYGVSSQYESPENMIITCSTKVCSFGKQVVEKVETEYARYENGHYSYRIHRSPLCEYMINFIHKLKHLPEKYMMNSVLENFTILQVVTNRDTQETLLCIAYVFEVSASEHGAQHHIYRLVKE

[3] = molecular target: Transcriptional enhancer factor TEF-1 (Homo sapiens, UniProt P28347); assay: Displacement of biotinylated lipid pocket probes from His-tagged TEAD1 (unknown origin) preincubated for 4 hrs followed by lipid pocket probe addition and measured after 60 mins by TR-FRET assay
Transcriptional enhancer factor TEF-1, sequence (P28347 whole entry): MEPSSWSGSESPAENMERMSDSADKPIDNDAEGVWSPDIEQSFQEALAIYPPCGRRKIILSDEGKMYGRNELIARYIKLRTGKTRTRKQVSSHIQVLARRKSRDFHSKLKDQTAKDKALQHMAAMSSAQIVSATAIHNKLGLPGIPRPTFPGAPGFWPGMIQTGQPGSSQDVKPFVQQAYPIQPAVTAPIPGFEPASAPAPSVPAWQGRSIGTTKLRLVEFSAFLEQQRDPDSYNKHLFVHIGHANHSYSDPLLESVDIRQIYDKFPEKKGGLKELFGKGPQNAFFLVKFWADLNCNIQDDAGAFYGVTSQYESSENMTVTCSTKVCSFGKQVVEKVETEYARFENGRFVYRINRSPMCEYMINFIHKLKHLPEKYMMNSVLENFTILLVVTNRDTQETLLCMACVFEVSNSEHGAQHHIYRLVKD

[4] = molecular target: Transcriptional enhancer factor TEF-5 (Homo sapiens, UniProt Q99594); assay: Displacement of biotinylated lipid pocket probes from His-tagged TEAD3 (unknown origin) preincubated for 4 hrs followed by lipid pocket probe addition and measured after 60 mins by TR-FRET assay
Transcriptional enhancer factor TEF-5, sequence (Q99594 whole entry): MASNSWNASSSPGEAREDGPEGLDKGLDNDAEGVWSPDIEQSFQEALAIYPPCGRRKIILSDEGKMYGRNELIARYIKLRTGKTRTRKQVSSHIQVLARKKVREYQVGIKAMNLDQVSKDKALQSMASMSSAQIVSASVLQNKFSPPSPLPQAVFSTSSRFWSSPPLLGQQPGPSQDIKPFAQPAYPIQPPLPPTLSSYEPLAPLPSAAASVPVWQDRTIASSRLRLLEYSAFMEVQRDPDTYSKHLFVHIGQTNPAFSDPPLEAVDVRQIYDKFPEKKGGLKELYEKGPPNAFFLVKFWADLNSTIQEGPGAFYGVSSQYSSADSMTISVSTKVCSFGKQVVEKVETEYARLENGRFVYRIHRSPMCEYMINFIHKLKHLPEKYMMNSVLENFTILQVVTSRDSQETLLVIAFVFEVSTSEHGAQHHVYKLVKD

Transcriptional enhancer factor TEF-4, sequence (Q15562 whole entry): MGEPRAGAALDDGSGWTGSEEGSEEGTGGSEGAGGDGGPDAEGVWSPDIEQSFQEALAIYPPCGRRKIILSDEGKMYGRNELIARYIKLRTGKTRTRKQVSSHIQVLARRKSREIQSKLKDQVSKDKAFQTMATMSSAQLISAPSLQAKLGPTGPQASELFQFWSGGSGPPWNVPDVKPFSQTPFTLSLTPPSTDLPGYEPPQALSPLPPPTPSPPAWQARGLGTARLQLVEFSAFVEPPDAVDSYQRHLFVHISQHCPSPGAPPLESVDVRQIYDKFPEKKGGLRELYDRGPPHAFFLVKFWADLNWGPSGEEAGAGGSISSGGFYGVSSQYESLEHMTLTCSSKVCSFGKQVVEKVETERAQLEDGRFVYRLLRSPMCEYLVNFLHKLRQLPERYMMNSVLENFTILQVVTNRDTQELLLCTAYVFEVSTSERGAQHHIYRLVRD

IC50 [1] [nM] | IC50 [2] [nM] | IC50 [3] [nM] | IC50 [4] [nM] | Structure (SMILES)
4 | 2 | – | – | Cn1cnc2c(-c3ccc(OC(F)(F)F)cc3)nc(C3CN(C(=O)C4=CCC4)C3)nc21
6 | 3 | 4 | 7 | C=CC(=O)N(C)Cc1cc(-c2ccc(OC(F)(F)F)cc2)c2c(c1CO)CCO2
– | 3 | 6 | – | C=CC(=O)NCc1cc(-c2ccc(OC(F)(F)F)cc2)c2ncn(C)c2c1C#CCO
4 | 2 | 3 | 3 | C=CC(=O)N1CC(c2nc(-c3ccc(OC(F)(F)F)cc3)c3ncsc3n2)C1
